Data published in PMC5981210, “Molecular recognition of wood polyphenols by phase II detoxification enzymes of the white rot Trametes versicolor” (Scientific Reports, 2018).
Values belong to the compound of their own block, whether it stands above or below them.

Key:
TvGSTO1S = molecular target: T1, TvGSTO1S (Trametes versicolor, UniProt R7S9J3); assay: thermal shift assay, SYPRO Orange; format: binding; settings: 100 µM ligand, 10 µM protein, Tris-HCl pH 8
T1 construct: gene TRAVEDRAFT_75639; produced in E. coli Rosetta2 DE3 pLysS
T1 sequence (R7S9J3 1-256): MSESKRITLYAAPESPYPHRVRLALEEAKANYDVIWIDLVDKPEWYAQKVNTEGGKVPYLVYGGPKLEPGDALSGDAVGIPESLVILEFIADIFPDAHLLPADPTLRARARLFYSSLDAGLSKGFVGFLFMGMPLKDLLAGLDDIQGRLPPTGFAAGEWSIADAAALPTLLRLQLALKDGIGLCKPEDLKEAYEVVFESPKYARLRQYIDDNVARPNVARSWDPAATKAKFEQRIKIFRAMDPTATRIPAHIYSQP
Description: thermal shift assay, SYPRO Orange on TvGSTO1S

TvGSTO6S = molecular target: T2, TvGSTO6S (Trametes versicolor, UniProt A0A384E158); assay: thermal shift assay, SYPRO Orange; format: binding; settings: 100 µM ligand, 10 µM protein, Tris-HCl pH 8
T2 construct: produced in E. coli Rosetta2 DE3 pLysS; homodimer; serine-type omega GST
T2 sequence (A0A384E158 1-246): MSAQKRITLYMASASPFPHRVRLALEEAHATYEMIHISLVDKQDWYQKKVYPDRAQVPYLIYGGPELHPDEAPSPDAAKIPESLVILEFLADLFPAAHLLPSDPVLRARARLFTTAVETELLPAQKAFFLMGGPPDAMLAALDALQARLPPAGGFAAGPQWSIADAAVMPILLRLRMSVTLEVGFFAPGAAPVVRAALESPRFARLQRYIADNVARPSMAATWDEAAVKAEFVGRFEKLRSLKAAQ
Description: thermal shift assay, SYPRO Orange on TvGSTO6S

TvGSTO5S = molecular target: T3, TvGSTO5S (Trametes versicolor, UniProt R7S6M8); assay: thermal shift assay, SYPRO Orange; format: binding; settings: 100 µM ligand, 10 µM protein, Tris-HCl pH 8
T3 construct: gene TRAVEDRAFT_54358; produced in E. coli Rosetta2 DE3 pLysS
T3 sequence (R7S6M8 1-241): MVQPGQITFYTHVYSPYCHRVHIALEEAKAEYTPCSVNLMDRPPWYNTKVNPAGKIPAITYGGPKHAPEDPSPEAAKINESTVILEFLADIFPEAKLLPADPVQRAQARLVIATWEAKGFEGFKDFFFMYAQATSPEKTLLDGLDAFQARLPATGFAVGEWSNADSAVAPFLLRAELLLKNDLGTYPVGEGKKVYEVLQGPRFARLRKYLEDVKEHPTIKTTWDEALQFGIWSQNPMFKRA
Description: thermal shift assay, SYPRO Orange on TvGSTO5S

TvGSTO2S = molecular target: T4, TvGSTO2S (Trametes versicolor, UniProt A0A452CSY5); assay: thermal shift assay, SYPRO Orange; format: binding; settings: 100 µM ligand, 10 µM protein, Tris-HCl pH 8
T4 construct: gene TRAPUB_12770; produced in E. coli Rosetta2 DE3 pLysS
T4 sequence (A0A452CSY5 1-239): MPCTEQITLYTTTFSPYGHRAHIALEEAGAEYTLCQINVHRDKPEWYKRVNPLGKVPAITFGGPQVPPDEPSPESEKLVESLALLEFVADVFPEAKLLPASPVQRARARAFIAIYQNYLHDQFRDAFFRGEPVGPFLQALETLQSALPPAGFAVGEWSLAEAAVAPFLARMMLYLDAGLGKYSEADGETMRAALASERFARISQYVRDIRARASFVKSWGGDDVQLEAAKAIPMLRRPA
Description: thermal shift assay, SYPRO Orange on TvGSTO2S

TvGSTO3S = molecular target: T5, TvGSTO3S (Trametes versicolor, UniProt A0A384E145); assay: inhibition of GSH-transferase activity, mixed model fit; format: biochemical; settings: PEITC 25–300 µM as substrate, 1 mM GSH, 100 mM phosphate pH 6.4, 25 °C
T5 construct: produced in E. coli Rosetta2 DE3 pLysS; homodimer; serine-type omega GST
T5 sequence (A0A384E145 1-240): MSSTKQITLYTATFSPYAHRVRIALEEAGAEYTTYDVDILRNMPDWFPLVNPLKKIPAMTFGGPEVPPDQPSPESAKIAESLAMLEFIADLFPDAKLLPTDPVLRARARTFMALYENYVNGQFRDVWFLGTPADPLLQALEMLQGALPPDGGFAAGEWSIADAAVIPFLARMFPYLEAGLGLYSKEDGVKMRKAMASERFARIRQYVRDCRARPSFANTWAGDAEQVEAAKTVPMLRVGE

[1] = molecular target: Trametes versicolor glutathione transferase Omega 3S (TvGSTO3S) (Trametes versicolor); assay: crystal structure; TvGSTO3S (13 mg/mL) crystallised by microbatch under oil at 278 K; 30% (w/v) PEG 400, 0.2 M calcium acetate, 0.1 M acetate buffer pH 4.5; apo and ligand complexes; homodimer in the crystal
[2] = molecular target: Trametes versicolor glutathione transferase Omega 6S (TvGSTO6S) (Trametes versicolor); assay: crystal structure; TvGSTO6S (26 mg/mL) crystallised by hanging drop with seeding; 25% (w/v) PEG 1500, 0.1 M MMT buffer pH 6.5; apo and naringenin complex ('dry soaking'); homodimer in the crystal

Compound: O=C(c1ccc(O)cc1O)c1ccc(O)cc1O [2,2′,4,4′-Tetrahydroxy benzophenone]
TvGSTO1S (TvGSTO1S): 3.74 °C | TvGSTO6S (TvGSTO6S): 3.40 °C

Compound: O=C(c1ccccc1)c1ccc(O)c(O)c1O [2,3,4-Trihydroxy benzophenone]
TvGSTO5S (TvGSTO5S): -12.89 °C | TvGSTO6S (TvGSTO6S): 4.15 °C | TvGSTO2S (TvGSTO2S): 2.92 °C

Compound: O=C(c1ccc(O)cc1)c1ccc(O)cc1O [2,4,4′-Trihydroxy benzophenone]
TvGSTO1S (TvGSTO1S): 2.74 °C

Compound: O=C(c1ccccc1)c1ccc(O)cc1O [2,4-Dihydroxy benzophenone]
TvGSTO2S (TvGSTO2S): 2.56 °C

The remaining lines, values ahead:

Ki (TvGSTO3S): 2890 ± 1240 nM
Compound: COc1c(O)cc(O)c2c(=O)cc(-c3ccccc3)oc12 [wogonin]

stoichiometry N [1]: 2
Compound: Trametes versicolor glutathione transferase Omega 3S (TvGSTO3S) (enzyme)

stoichiometry N [2]: 2
Compound: Trametes versicolor glutathione transferase Omega 6S (TvGSTO6S) (enzyme)
